Measured values published in PubChem BioAssay (NCI).
Where “and” joins values, the source holds several entries; their conditions need not be identical. Equal entries are not always repeated.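 1) Cells in 96-well plates. 2) Compound, 48 h, 5 concentrations. 3) Linear interpolation between surrounding doses. 4) Unreached endpoint = highest concentration. GI50 = concentration required for 50% inhibition of growth. TGI: concentration producing complete growth inhibition.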

Assays:
Test in all cases: NCI anticancer screen, dose series, 48 h
786-0 renal = test system: 786-0 renal
HCT-116 colon = test system: HCT-116 colon
HCT-15 colon = test system: HCT-15 colon
HOP-92 NSCLC = test system: HOP-92 NSCLC
KM12 colon = test system: KM12 colon
MDA-MB-435 = test system: MDA-MB-435
RXF 393 renal = test system: RXF 393 renal
SF-295 CNS = test system: SF-295 CNS
UACC-62 melanoma = test system: UACC-62 melanoma
UO-31 renal = test system: UO-31 renal

SMILES	GI50 (786-0 renal)	TGI (786-0 renal)	GI50 (HCT-116 colon) [µM]	TGI (HCT-116 colon) [µM]	GI50 (HCT-15 colon) [µM]	TGI (HCT-15 colon) [µM]	GI50 (HOP-92 NSCLC)	TGI (HOP-92 NSCLC)	GI50 (KM12 colon) [µM]	TGI (KM12 colon)	GI50 (MDA-MB-435) [µM]	TGI (MDA-MB-435)	GI50 (RXF 393 renal)	TGI (RXF 393 renal)	GI50 (SF-295 CNS)	TGI (SF-295 CNS)	GI50 (UACC-62 melanoma)	TGI (UACC-62 melanoma) [µM]	GI50 (UO-31 renal)	TGI (UO-31 renal)
COc1cccc2c1C(=O)c1c(O)c3c(c(O)c1C2=O)C[C@@](O)(C(=O)COC(=O)c1cccnc1)C[C@@H]3OC1CC(N)C(O)C(C)O1 (stereo not given in full)	0.14 µM	1.25 µM	0.0475	0.492	1.07	16.8	0.0859 µM	0.737 µM	0.284	8.44 µM	0.217	1 µM	0.169 µM	0.589 µM	0.148 µM	2.29 µM	0.103 µM	0.268	0.46 µM	2.89 µM
O=C(Oc1ccccc1Cl)c1cccnc1Nc1ccnc(C(F)(F)F)c1	14.7 µM	31.4 µM	2.13	4.35	14.6	29.1	35.2 µM	> 100 µM	14.4	32.6 µM	4.53	18.3 µM	19.1 µM	42.6 µM	21.3 µM	52.5 µM	6.13 µM	18.7	14.6 µM	32.6 µM
C[C@]1(O)CC(=O)[C@]2(O)C3=C(C=C[C@]2(O)C1)C(=O)c1c(O)cccc1C3=O	2.88 µM	8.5 µM	0.649	2.56	1.19	3.08	1.51 µM	2.9 µM	14	40.7 µM	1.85	3.44 µM	1.46 µM	2.85 µM	18.3 µM	34.4 µM	1.86 µM	3.91	1.23 µM	2.52 µM
COc1cc(/C=C\c2cc(/C=C\c3ccc(O)c(OC)c3)n(C(=O)Nc3ccc(C(F)(F)F)cc3)n2)ccc1O	2.42 µM	7.52 µM	1.51	2.94	2.69	9.63	2.35 µM	6.79 µM	2.33	5.59 µM	2.35	7.06 µM	–	–	2.89 µM	9.85 µM	2.02 µM	4.76	–	–
COc1ncnc2c1ncn2C/C(Br)=C(\Br)CCl	3.38 µM	11.5 µM	1.73	3.49	1.84	4.16	4.08 µM	16.4 µM	3.54	13.4 µM	2.94	11.5 µM	1.64 µM	3.06 µM	10.6 µM	23.3 µM	2.65 µM	12	2.41 µM	10.6 µM
COc1cc(C)c(N(C)C(=O)CN(C)C)cc1Nc1nc(Nc2cccc(F)c2C(N)=O)c2cc[nH]c2n1	> 25 µM	> 25 µM	15.7	> 25	> 25	> 25	0.645 µM	16.2 µM	> 25	> 25 µM	> 25	> 25 µM	20.5 µM	> 25 µM	> 25 µM	> 25 µM	> 25 µM	> 25	9.26 µM	> 25 µM
CC(C)(C)OC(=O)N(CCCn1c2c(c3ccccc3c1=O)C(=O)c1ccccc1-2)CCN(CCCn1c2c(c3ccccc3c1=O)C(=O)c1ccccc1-2)C(=O)OC(C)(C)C	13.6 µM	> 50 µM	14.1	> 50	24.2	> 50	11.1 µM	> 50 µM	> 50	> 50 µM	> 50	> 50 µM	12.6 µM	> 50 µM	14 µM	> 50 µM	45.3 µM	> 50	> 50 µM	> 50 µM
Cn1c(-c2c(N)n(Cc3ccc(Cl)cc3)c3nc(C#N)c(C#N)nc23)nc2ccccc21	7.69 µM	17.4 µM	8.52	> 50	4.55	> 50	2.35 µM	10.1 µM	2.76	32.2 µM	7.63	> 50 µM	0.567 µM	4.67 µM	6.28 µM	40.5 µM	2.26 µM	9.71	5.35 µM	13.2 µM
CCN(CC)CCNc1ccc(CO)c2sc3ccccc3c(=O)c12	4.99 µM and 19.4 µM	18.8 µM and 52.1 µM	4.28	–	–	–	1.91 µM and 5.36 µM	15 µM and 14.9 µM and 17.9 µM	–	26 µM [middle of 4 runs]	2.49	7.56 µM and 11.3 µM	2.23 µM and 7.35 µM	8.45 µM and 19 µM and 20.3 µM	2.98 µM and 5.31 µM	21.1 µM [middle of 4 runs]	1.94 µM and 11.3 µM	–	2.09 µM and 8.51 µM	20.9 µM [middle of 4 runs]
O=c1c2ccccc2c(C=NCCNCCO)c2oc3ccccc3n12	12.4 µM	24.9 µM	–	–	10.1	23.9	11.7 µM	26.9 µM	10.4	22.1 µM	12.3	24.7 µM	4.96 µM	22.6 µM	3.72 µM	13.6 µM	11.6 µM	23.8	9.58 µM	22.5 µM
CC(C)NCCCNC1=C(Cl)C(=O)c2ccccc2C1=O	18.1 µM	33.5 µM	2.12	5.28	1.95	3.96	14.6 µM	31.2 µM	9.59	22.3 µM	2.1	4.07 µM	14.5 µM	27.8 µM	–	–	2.1 µM	4.91	14.4 µM	29.2 µM
CC(=O)OC1CC(C)c2c1ncnc2N1CCN(C(=O)OC(C)(C)C)CC1 (stereo not given)	56.2 µM	> 100 µM	38.1	> 100	55.3	> 100	19.4 µM	91.4 µM	38.1	> 100 µM	19.8	41 µM	31.9 µM	> 100 µM	–	–	46.4 µM	> 100	> 100 µM	> 100 µM
